Assay results published in patent publication US20120309821A1, “Use of epigallocatechin-3-gallate for immune regulation” (NATIONAL DEFENSE MEDICAL CENTER, priority 2011, published 2012).

Experiments:
[1] = tested on: NZB/W F1 lupus-prone mice; assay: Urine protein time course in NZB/W F1 lupus-prone mice; format: in vivo, mouse; settings: 120 mg/kg EGCG by gavage daily from 12 weeks of age; weeks 28-34; vs disease control mice
Experimental: (§1) Female NZB/W F1 mice were purchased from the Animal Center of the National Taiwan University (Taipei, Taiwan, ROC) and, at 12 weeks of age, were divided into two groups, one of which was given normal saline and served as the disease control, while the other was given 120 mg/kg body weight of EGCG (Ryss Lab, Inc., CA, USA) (this dose is a slight modification of those used in previous in vivo studies) by gavage daily till sacrificed at 34-weeks-old. 8-Week-old NZB/W F1 female mice (prior to onset of autoantibody production) were used as normal controls. Urine samples were collected in metabolic cages every 2 weeks and urine protein levels were measured, and serum samples were used to measure serum levels of blood urea nitrogen (BUN) and creatinine (Cr) as described previously (Ka, S. M. et al. Decoy receptor 3 ameliorates an autoimmune crescentic glomerulonephritis model in mice. J Am Soc Nephrol 18:2473-2485; 2007). All animal experiments were performed upon the ethical approval of the Institutional Animal Care and Use Committee of the National Defense Medical Center, Taiwan and according to the ethical rules in the NIH Guide for the Care and Use of Laboratory Animals.

[2] = tested on: IgG immune complex deposition in the glomerulus; assay: Kidney IgG immune complex deposits by immunofluorescence; format: in vivo, mouse; settings: 120 mg/kg by gavage daily; week 34; disease control vs EGCG-treated mice
Experimental: as §1, with “Animals. For immune complex detection, frozen renal tissues were prepared and incubated with fluorescein isothiocyanate (FITC)-conjugated goat anti-mouse IgG antibodies (Cappel, N.C., USA). […] Scoring of staining was recorded.” for “Animals.”

superoxide anion = assay: Superoxide anion (ROS) levels in serum, urine and kidney; format: in vivo, mouse; settings: 120 mg/kg by gavage daily, week 34
Experimental: as §1, with “Animals. Kidney in situ superoxide anion production was determined by dihydroethidium (DHE) labeling. Fluorescent images were quantified by counting the percentage of positive nuclei in the total nuclei per kidney cross-section. Superoxide anion levels in serum and kidney tissues were measured as described previously and the results expressed as reactive luminescence units (RLU) per 15 min per milligram dry weight (i.e., RLU/15 min/mg dry weight).” for “Animals.”

Nrf2 = assay: Western blot of nuclear Nrf2 in kidney; format: in vivo, mouse; settings: 120 mg/kg by gavage daily, week 34, compared to disease controls
Experimental: as §1, with “Animals. […] Antibodies to histone H3 (Cell Signaling) or β-actin (Santa Cruz) were used as internal controls for the nuclear and cytosolic target proteins, respectively.” for “Animals.”

[3] = tested on: NAD(P)H oxidase subunit p47phox; assay: Western blot of cytosolic p47phox in kidney; format: in vivo, mouse; settings: 120 mg/kg by gavage daily, week 34, increase seen in disease control
Experimental: as §1, with “Animals. […] Antibodies to histone H3 (Cell Signaling) or β-actin (Santa Cruz) were used as internal controls for the nuclear and cytosolic target proteins, respectively.” for “Animals.”

NF-κB p65 = assay: IHC of NF-κB p65 in kidney; format: in vivo, mouse; settings: 120 mg/kg by gavage daily; week 34; increase seen in disease control
Experimental: as §1

caspase-1 = assay: Western blot of caspase-1 p20 in kidney; format: in vivo, mouse; settings: 120 mg/kg by gavage daily, week 34
Experimental: as §1, with “Animals. […] Antibodies to histone H3 (Cell Signaling) or β-actin (Santa Cruz) were used as internal controls for the nuclear and cytosolic target proteins, respectively.” for “Animals.”

CD4+CD25+ Treg cells = assay: Treg cell functional assay (3H-thymidine proliferation, cells from treated mice); format: cell-based, mouse

Q: For Epigallocatechin-3-gallate [EGCG], which urine protein levels [1] is on record?
A: The urine protein levels was “markedly inhibited”.

Q: What about the “IgG immune complex deposition in the glomerulus” value [2] of the same substance?
A: The value was “no significant difference”.

Q: And the “levels of superoxide anion in the kidney” value (superoxide anion; kidney)?
A: The value was “inhibited”.

Q: What about the “superoxide anion levels in the serum” value (superoxide anion; serum) of the same substance?
A: Its value is “decreased by EGCG treatment to levels similar to those in normal control mice”.

Q: And the “superoxide anion levels in the urine” value (superoxide anion; urine)?
A: Its value is “decreased by EGCG treatment to levels similar to those in normal control mice”.

Q: What about the “Nrf2 translocation into the nucleus” value (Nrf2) of the same substance?
A: Its value is “markedly increased”.

Q: And the “levels of NAD(P)H oxidase subunit p47phox” value [3]?
A: Its value is “abolished”.

Q: What about the “NF-κB p65 activity in the kidney (IHC, nuclear location)” value (NF-κB p65) of the same substance?
A: The value was “markedly inhibited”.

Q: And the “caspase-1 activation (appearance of the p20 subunit) in kidney” value (caspase-1)?
A: The value was “significantly inhibited”.

Q: And the “proliferation of Treg cells incubated alone following anti-CD3 antibody stimulation” value (CD4+CD25+ Treg cells; Treg cells from EGCG-treated mice)?
A: Its value is “did not proliferate”.

Q: What about the “inhibition of responder T cell proliferation by added Treg cells (Treg cell activity)” value (CD4+CD25+ Treg cells; Treg cells from EGCG-treated mice vs Treg cells from disease control mice, titration) of the same substance?
A: Its value is “much greater”.

Q: What about the “proliferation of responder T cells incubated alone following anti-CD3 antibody stimulation” value (CD4+CD25+ Treg cells; responder T cells from EGCG-treated vs disease control mice) of the same substance?
A: The value was “proliferated, but to an equal extent”.
